This is an account of results in article PMC7655065, “Effect of 3-subsitution of quinolinehydroxamic acids on selectivity of histone deacetylase isoforms” (Journal of Enzyme Inhibition and Medicinal Chemistry, 2020).

Where two headings read alike, the source gives them in different places.

Data set [1] deals with HDAC6. The arrangement: method as in PMID 29304284. Particulars: printed in Figure 2, previously synthesised compound; cited from earlier work.
For data set [2], the system named is A549 cells. Further details: method as in PMID 27344487. Particulars: reference compounds, read-out: Antiproliferative activity IC50, A549; cited from earlier work.
Data set [3] deals with HCT116 cells. The arrangement: method as in PMID 27344487. Particulars: reference compounds, read-out: Antiproliferative activity IC50, HCT116; cited from earlier work.
Data set [4] deals with HCT116 cells. Description: Sulforhodamine B antiproliferative assay, HCT116. It counts as cell-based. The settings on record: Homo sapiens, HCT-116, SRB, 48 h, values > 10 μM estimated from best curve fitting. On the procedure: (§1) All human cancer cells were maintained in RPMI 1640 medium supplemented with 10% FBS and penicillin (100 units/ml)/streptomycin (100 µg/ml)/amphotericin B (0.25 µg/ml). All cells were maintained in humidified air containing 5% CO2 at 37 °C and cultured every 2–3 days. […]
(§2) Cells were seeded at the density of 5000 cells/well into 96-plate overnight. Basal cells were fixed with 10% trichloroacetic acid (TCA) to represent the cell population at the time of compound addition (T0). After additional incubation of DMSO (C) or different doses of test compounds (Tx) for 48 h, cells were fixed with 10% TCA and stained with SRB at 0.4% (w/v) in 1% AcOH. Unbound SRB was washed out using 1% AcOH and SRB bound cells were solubilised with 10 mM Trizma base. The absorbance was read at a wavelength of 515 nm. The 50% growth inhibition (GI50) was calculated by 100 − [(Tx – T0)/(C – T0)] × 100.

Data set [5] has as its system A549 cells. In words: Sulforhodamine B antiproliferative assay, A549. Particulars: Homo sapiens. Type of data set: cell-based. On the procedure: as §1, §2
(In general: The SRB assay estimates cell density from bound dye.)

In data set [6] the target is T1, HDAC6 (Homo sapiens, UniProt Q9UBN7).
T1 construct: EurofinPanlabs (Taipei, Taiwan)
T1 sequence (Q9UBN7 1-1215): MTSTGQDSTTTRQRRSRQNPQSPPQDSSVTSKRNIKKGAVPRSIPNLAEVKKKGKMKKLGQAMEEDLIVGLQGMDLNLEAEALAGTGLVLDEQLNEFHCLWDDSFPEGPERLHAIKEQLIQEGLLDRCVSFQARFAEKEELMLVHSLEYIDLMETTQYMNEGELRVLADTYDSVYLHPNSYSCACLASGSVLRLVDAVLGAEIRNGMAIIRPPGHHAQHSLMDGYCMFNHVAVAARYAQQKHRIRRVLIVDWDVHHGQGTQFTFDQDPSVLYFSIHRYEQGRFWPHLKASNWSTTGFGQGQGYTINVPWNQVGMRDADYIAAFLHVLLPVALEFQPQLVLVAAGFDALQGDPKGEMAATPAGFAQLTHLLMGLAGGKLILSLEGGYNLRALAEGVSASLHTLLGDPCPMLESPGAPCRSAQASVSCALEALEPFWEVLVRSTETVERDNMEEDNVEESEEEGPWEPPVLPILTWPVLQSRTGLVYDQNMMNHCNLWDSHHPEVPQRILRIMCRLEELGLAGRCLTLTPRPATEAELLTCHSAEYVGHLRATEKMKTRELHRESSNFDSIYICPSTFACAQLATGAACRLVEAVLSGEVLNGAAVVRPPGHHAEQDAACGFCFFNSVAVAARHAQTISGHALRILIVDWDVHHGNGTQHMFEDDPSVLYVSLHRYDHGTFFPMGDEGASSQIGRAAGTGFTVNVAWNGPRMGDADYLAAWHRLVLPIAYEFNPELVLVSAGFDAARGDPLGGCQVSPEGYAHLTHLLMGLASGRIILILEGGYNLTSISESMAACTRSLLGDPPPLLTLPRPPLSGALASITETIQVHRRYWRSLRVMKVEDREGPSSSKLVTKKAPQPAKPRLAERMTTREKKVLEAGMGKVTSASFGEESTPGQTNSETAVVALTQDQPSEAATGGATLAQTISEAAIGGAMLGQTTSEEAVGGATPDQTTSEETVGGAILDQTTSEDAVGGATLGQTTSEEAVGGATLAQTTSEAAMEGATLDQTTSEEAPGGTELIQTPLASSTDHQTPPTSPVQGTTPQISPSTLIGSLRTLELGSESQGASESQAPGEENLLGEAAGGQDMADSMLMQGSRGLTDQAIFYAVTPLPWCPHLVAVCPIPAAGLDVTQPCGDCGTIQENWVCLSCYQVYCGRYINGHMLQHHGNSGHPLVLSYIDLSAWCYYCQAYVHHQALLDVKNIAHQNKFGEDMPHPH
In words: HDAC biochemical assay (Fluor-de-Lys), HDAC6. The settings on record: human recombinant HDAC6.

A further data set concerns the target T2, HDAC2 (Homo sapiens, UniProt Q92769).
T2 construct: EurofinPanlabs (Taipei, Taiwan)
In words: HDAC biochemical assay (Fluor-de-Lys), HDAC2. Particulars: for Selectivity ratio of HDAC2 over HDAC6: IC50 HDAC2 / IC50 HDAC6; for IC50: human recombinant HDAC2, dash = no inhibition or activity that could not be fitted to an IC50 curve.

The subject of data set [7] is A549 cells. Description: Western blot analysis of apoptosis and DNA damage markers. Type of data set: cell-based, human. Particulars: A549 cells treated for 48 h; 0.25, 5 and 10 µM. On the procedure: buffer (20 mMTris-HCl pH 7.5, 150 mM NaCl, 1 mM Na2EDTA, 1 mM EGTA, 1% NP-40, 1% sodium deoxycholate, 0.1% SDS, 2.5 mM β-glycerylphosphate, 1 mM Na4P2O7, 5 mM NaF, 1 mM Na3VO4 and protease inhibitor cocktail from Millipore) on ice for 30 min following by centrifugation at 13000 rpm for 30 min. Protein concentrations were determined and equal amounts of protein were separated by 8–15% sodium dodecyl sulphate-polyacrylamide gel electrophoresis (SDS–PAGE) and transferred to poly(vinylidene difluoride) (PVDF) membranes. Membranes were immunoblotted with specific antibodies overnight at 4 °C and then applied to appropriate horseradish peroxidase-conjugated anti-mouse or anti-rabbit IgG secondary antibodies for 1 h at RT. Signals were detected using an enhanced chemiluminescence (Amersham, Buckinghamshire, UK).

Data set [8] relates to A549 cells. Description: Flow cytometry cell cycle analysis. It counts as cell-based, human. Particulars: A549 cells, 0.25, 0.5, 10 μM, 48 h, propidium iodide. On the procedure:
Briefly, A549 cells were starved with EBM-2 medium overnight and were subsequently replenished with EGM-2 medium with or without 17, 25, and 26 (0.25, 0.5, 10 µM) for 48 h. After being trypsinized and fixed in ice-cold 75% MeOH for 1 h at −20 °C, A549 cells were washed with PBS and resuspended in 0.2 ml DNA extraction buffer (0.2 M Na2HPO4, 0.1 M citric acid; pH 7.8) for 30 min. Then the cells were stained with propidium iodide solution (PI; 100 µg/ml RNase, 80 µg/ml propidium iodide, 0.1% Triton X-100) in PBS. FACScan flow cytometry was utilised to determine cell cycle distribution, and data analysis was performed with CellQuest software (BD Biosciences).

For the next data set, the target named is T3, HDAC1 (Homo sapiens, UniProt Q13547).
T3 construct: EurofinPanlabs (Taipei, Taiwan)
In words: HDAC biochemical assay (Fluor-de-Lys), HDAC1. Particulars: for Selectivity ratio of HDAC1 over HDAC6: IC50 HDAC1 / IC50 HDAC6; for IC50: human recombinant HDAC1, values > 10 μM estimated from best curve fitting.

In a further data set the target is T4, HDAC8 (Homo sapiens, UniProt Q9BY41).
T4 construct: EurofinPanlabs (Taipei, Taiwan)
T4 sequence (Q9BY41 1-377): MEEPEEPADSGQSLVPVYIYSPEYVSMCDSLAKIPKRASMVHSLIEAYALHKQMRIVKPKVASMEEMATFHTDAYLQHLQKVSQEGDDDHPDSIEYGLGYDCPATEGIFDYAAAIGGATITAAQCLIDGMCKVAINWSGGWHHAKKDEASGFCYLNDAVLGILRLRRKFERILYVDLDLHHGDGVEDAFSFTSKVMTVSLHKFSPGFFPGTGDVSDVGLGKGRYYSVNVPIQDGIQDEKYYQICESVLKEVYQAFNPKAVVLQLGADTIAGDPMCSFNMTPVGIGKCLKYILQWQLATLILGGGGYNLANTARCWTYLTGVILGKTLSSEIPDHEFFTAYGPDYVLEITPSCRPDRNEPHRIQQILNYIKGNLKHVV
In words: HDAC biochemical assay (Fluor-de-Lys), HDAC8. The settings on record: for Selectivity ratio of HDAC8 over HDAC6: IC50 HDAC8 / IC50 HDAC6; for IC50: human recombinant HDAC8.

Where [9] appears, read: A549 cells, SRB, 48 h, values > 10 μM estimated from best curve fitting, read-out: Antiproliferative activity IC50, A549.
Setting [10] is: range over both cell lines (A549 and HCT116) and both compounds, abstract, read-out: IC50 values against A549 and HCT116 cells.

T2 sequence (Q92769 whole entry): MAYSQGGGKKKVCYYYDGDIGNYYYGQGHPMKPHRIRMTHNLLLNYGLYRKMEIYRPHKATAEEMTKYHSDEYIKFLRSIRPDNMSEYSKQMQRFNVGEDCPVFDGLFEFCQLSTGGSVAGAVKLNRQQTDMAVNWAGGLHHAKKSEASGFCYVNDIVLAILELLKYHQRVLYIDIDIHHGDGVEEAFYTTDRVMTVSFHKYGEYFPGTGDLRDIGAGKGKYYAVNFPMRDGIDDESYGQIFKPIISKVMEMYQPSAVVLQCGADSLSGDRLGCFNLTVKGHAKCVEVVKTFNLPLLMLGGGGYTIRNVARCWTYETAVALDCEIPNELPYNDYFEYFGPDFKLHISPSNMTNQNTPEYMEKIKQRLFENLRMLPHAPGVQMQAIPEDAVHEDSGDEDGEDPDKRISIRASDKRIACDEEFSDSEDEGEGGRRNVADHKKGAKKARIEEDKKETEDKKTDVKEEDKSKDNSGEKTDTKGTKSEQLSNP
T3 sequence (Q13547 whole entry): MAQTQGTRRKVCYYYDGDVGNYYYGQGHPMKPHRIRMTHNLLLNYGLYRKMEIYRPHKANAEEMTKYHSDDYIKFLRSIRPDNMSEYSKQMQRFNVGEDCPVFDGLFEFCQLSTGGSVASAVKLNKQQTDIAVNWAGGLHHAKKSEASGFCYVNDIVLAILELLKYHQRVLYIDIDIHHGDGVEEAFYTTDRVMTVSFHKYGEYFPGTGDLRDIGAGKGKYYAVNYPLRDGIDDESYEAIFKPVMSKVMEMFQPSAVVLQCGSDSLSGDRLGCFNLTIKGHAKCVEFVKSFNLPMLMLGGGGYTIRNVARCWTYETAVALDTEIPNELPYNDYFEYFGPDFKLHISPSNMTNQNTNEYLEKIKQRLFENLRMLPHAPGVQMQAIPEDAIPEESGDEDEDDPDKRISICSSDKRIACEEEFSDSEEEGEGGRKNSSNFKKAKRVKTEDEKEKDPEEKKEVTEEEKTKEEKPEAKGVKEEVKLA

For `O=C(NO)c1ccc(CNc2cccc3cccnc23)cc1` [Compound 13, N-hydroxy-4-((quinolin-8-ylamino)methyl)benzamide], in the data set on HDAC6 [1], the concentration for half-maximal inhibition (IC50) is 0.29 nM.

For the compound `O=C(/C=C/c1cccc(S(=O)(=O)Nc2ccccc2)c1)NO` [PXD101, (E)-N-hydroxy-3–(3-(N-phenylsulfamoyl)phenyl)acrylamide], the concentration for half-maximal inhibition (IC50) in the data set on A549 cells [2] was 780 ± 70 nM; with HCT116 cells [3], 130 ± 10 nM.

`O=C(NO)c1ccc(CNc2cccc3cc(-c4cccnc4)cnc23)cc1` [Compound 25, N-Hydroxy-4-(((3-(pyridin-3-yl)quinolin-8-yl)amino)methyl)benzamide]: the IC50 was 1610 ± 220 nM in the data set with HCT116 cells [4]; 1290 ± 410 nM with A549 cells [5] (setting [9]); 1290 to 2130 nM in the data set with A549 cells [5] (setting [10]); 4.75 nM at HDAC6 [6]; 1310 nM on HDAC2; 2620 nM at HDAC1. The IC50 on HDAC8 was found to be 1800 nM. Besides, the “Selectivity ratio of HDAC2 over HDAC6” value on HDAC2 is on record as “(276)”. In the data set on A549 cells [7], the “Caspase 3, 8, and 9 cleavage (Western blot)” value was “dose dependent increases in caspase 3, 8, and 9 cleavage”. The “Cell cycle distribution, sub G1 population” value in the data set with A549 cells [8] is given as “concentration dependent accumulation of A549 cells in sub G1 phase”. Also, the “Selectivity ratio of HDAC1 over HDAC6” value on HDAC1 is reported as “(552)”. Moreover, the “Selectivity ratio of HDAC8 over HDAC6” value on HDAC8 is given as “(379)”.

In the case of `O=C(NO)c1ccc(CNc2cccc3cc(-c4ccncc4)cnc23)cc1` [Compound 26, N-Hydroxy-4-(((3-(pyridin-4-yl)quinolin-8-yl)amino)methyl)benzamide], the half-maximal inhibitory concentration (IC50) with HCT116 cells [4] was 2030 ± 460 nM; in the data set on A549 cells [5] (setting [9]) it was 2130 ± 130 nM; in the data set with A549 cells [5] (setting [10]), 1290 to 2130 nM; at HDAC6 [6] it was 8.61 nM; on HDAC2, 2890 nM; on HDAC1, 5130 nM. For the same compound, on HDAC8, the IC50 was found to be 2350 nM. In addition, the “Selectivity ratio of HDAC2 over HDAC6” value at HDAC2 is recorded as “(336)”. For the same compound, the “Caspase 3, 8, and 9 cleavage (Western blot)” value in the data set on A549 cells [7] is “dose dependent increases in caspase 3, 8, and 9 cleavage”. Further, in the data set with A549 cells [8], the “Cell cycle distribution, sub G1 population” value is listed as “concentration dependent accumulation of A549 cells in sub G1 phase”. For the same compound, the “Selectivity ratio of HDAC1 over HDAC6” value on HDAC1 is on record as “(596)”. Moreover, the “Selectivity ratio of HDAC8 over HDAC6” value on HDAC8 is “(273)”.

Compound `O=C(NO)c1ccc(CNc2cccc3cc(-c4ccccc4)cnc23)cc1` [Compound 18, N-Hydroxy-4-[(3-phenyl-quinolin-8-ylamino)-methyl]-benzamide] gave a melting point of 172.7 to 173.2 °C. The concentration for half-maximal inhibition (IC50) with HCT116 cells [4] is 4700 ± 380 nM. Further, the IC50 with A549 cells [5] (setting [9]) is 4970 ± 60 nM. At HDAC6 [6], the concentration for half-maximal inhibition (IC50) was 19.4 nM. Also, at HDAC2, the “Selectivity ratio of HDAC2 over HDAC6” value is “(> 515)” and the IC50 was above 10000 nM. Moreover, at HDAC1, the “Selectivity ratio of HDAC1 over HDAC6” value is recorded as “(273)” and the IC50 is 5300 nM. For the same compound, at HDAC8, the “Selectivity ratio of HDAC8 over HDAC6” value is “(355)” and the concentration for half-maximal inhibition (IC50) amounted to 6880 nM.

For the compound `O=C(CCCCCCC(=O)Nc1ccccc1)NO` [SAHA, N^1-hydroxy-N^8-phenyloctanediamide], the IC50 in the data set with A549 cells [2] was 1020 ± 150 nM.

What is called IC50 is the concentration that gives 50% inhibition. One may read the melting point as the temperature of the solid-liquid transition.
